Results from US20220235328A1, “HUMAN DISEASED AND NORMAL KIDNEY EPITHELIAL CELL CULTURES AND USES THEREOF” (DISCOVERYBIOMED, INC., priority 2019, published 2022).
Values after ≈ are worked out from the molar mass of the structure shown.

Columns and labels:
[1] = tested on: Immortal Human ADPKD Cell Line; experiment: TEER of cell monolayers pre- and post-amiloride; assay type: cell-based; conditions: amiloride treatment
Procedure: High-titer aliquots (10^9 pfu) of Lenti-SV40T, Lenti-hTERT-Neo and Lenti-CDK4 from Applied Biological Materials (ABM) (Richmond, BC, Canada) and Lenti-CDNK2 (Sigma-Aldrich) were diluted into transfection media to 10^7 pfu for cell challenge. In some cases, Lenti-hTERT and Lenti-CDK4 or Lenti-CDNK2 were combined as a newer immortalization method. huADPKD primary cultures were selected for immortalization based on a compelling genotype, an acceptable cell proliferation rate, and an ability to form cysts in 3D Matrigel culture. Mixed immortalized cultures were established by both methods from primary cultures where the lifetime of the cells were doubled from 5 passages (primary) to 10 passages (mixed immortal). The SV40T method was successful in generating immortal cell cultures that formed electrically tight polarized cell monolayers for transepithelial resistance (TEER) measurements and likely Ussing chamber-based electrophysiological recording of ion transport. These immortal human ADPKD cell monolayers may also be useful in fluid transport assays. Transepithelial/transendothelial electrical resistance (TEER) data for a new immortalized human ADPKD cell line are shown in Table 1 below.

[2] = tested on: ADPKD cells; experiment: AVP-stimulated cystogenesis, 384-well high-content imaging; assay type: cell-based, human; conditions: 14 days culture in the presence of AVP versus absence
Procedure: Whole well automated high-content imaging was performed of ADPKD primary cells seeded in 384-well plates using the BioTek Cytation 5 system. Multiple well were captured per treatment. Uniform images were fed into deep learning algorithms for analysis. Stimuli like cAMP agonists and growth factors were not required, as the DBM RenalCyte media was sufficient to drive cystogenesis, as shown in FIG. 14.

[3] = tested on: ADPKD cell cultures; experiment: Cyst reduction assay, 3D CellTiterGLO cell viability, CRC design; assay type: cell-based, human
From the text: Results are shown in FIG. 26 for a cyst reduction assay.

[4] = tested on: ADPKD cell cultures; experiment: Cyst prevention assay, 3D CellTiterGLO cell viability, CRC design; assay type: cell-based, human
Procedure: In this assay, the ADPKD cell cultures were incubated on 4 days before 1 week of treatment with drugs, media only or DMSO only.

[5] = tested on: primary huADPKD cells; experiment: Cyst prevention cystogenesis bioassay, 3D biogel, 48-well, light microscopy; conditions: for overt cell cytotoxicity: concentrations tested; for effect on cyst appearance and expansion: midway point and end of assay, various concentrations
Procedure: Primary cells capable of 3D cystogenesis were seeded into a 3D biogel that is liquified before the gel sets. The gel set undisturbed within a humidified 5% CO2 incubator for 18 hours. An equal volume of DBM RenalCyte media was then overlaid in each well of a 48-well plate. “Add” feeds were performed until the well was full, and then half of the volume of media was removed and new media added at the same volume thereafter. […] In the cyst prevention assay, cysts were challenged as soon as they started to appear (small in dimension and few in number per well) with a test compound. The timing of addition of the test compound, frequency of addition of the test compound and concentration of the test compound varied. The effects on the cysts were followed by light-based microscopic imaging over time. In addition to visual inspection by light-based microscopic imaging occurring throughout the study, the number of cysts were counted per well at the end of the study and light-based endpoints were examined, such as 3D CellTiter-GLO® from Promega (Madison, Wis.) (to quantify viable cells), secretion (to quantify cell membrane integrity), and/or Caspase-GLO® (Promega) (to measure induction of apoptosis) in multiplex fashion. A modified version of this assay images after seeding the biogel each day for complete prevention of cyst formation versus counterpart controls over a 14 to 21-day period. Multiple replicates were performed, and cells from multiple donors were tested.

[6] = tested on: primary huADPKD cells; experiment: Cyst attack cystogenesis bioassay, cyst image tracking; assay type: cell-based, human; conditions: 3 μM
Procedure: Primary cells capable of 3D cystogenesis were seeded as described above for the cyst prevention cytogenesis bioassay. In the cyst attack assay, cysts were allowed to develop to 12-24 in number and allowed to expand to a significant size. Specific cysts or cyst clusters were marked in each well. A test compound was then added to attack the already formed cysts to determine effects on the cysts. […] The timing of addition of the compound, frequency of addition of the compound and concentration of the compound varied.
A prominent cyst was imaged before treatment and daily for 6 days after treatment began. This larger cyst increased by 2.5 to 3.0 fold in the presence of the industry standard drug, tolvaptan, a vasopressin receptor antagonist.

[7] = Solubility limit noted in the cyst prevention assay; assay type: physicochemical
[8] = tested on: primary huADPKD cells; experiment: 384-well cyst prevention assay, percent viability versus DMSO control; assay type: cell-based, human
Procedure: (§1) A BioTek Cytation 5 (Biotek instruments, Winooski, Vt.) high content imaging and light-based high-throughput screening imaging system was used to image the huADPKD cells growing in 3D Biogels in 96-well and 384-well microliter plates. The Cytation 5 is coupled to a BioTek BioSpa 8 (a humidified CO2 incubator), such that trays can be extracted one at a time for analysis in the reader and then returned to the BioSpa.
While no drivers are required, they can be used if desired. Edge wells are filled with saline to mitigate edge effects
Whole well automated high-content imaging was performed of ADPKD primary cells seeded in 384-well plates using the BioTek Cytation 5 system. Multiple well were captured per treatment. Uniform images were fed into deep learning algorithms for analysis.
(§2) Concentrations of 30-1000 nM were tested for each, and data were expressed as percent viability versus DMSO control (n=12). […] Statistical analysis was performed using ANOVA.

[9] = tested on: primary human ADPKD cultures; experiment: 384-well cyst attack assay, 3D CellTiterGLO cell viability; assay type: cell-based
Procedure: as §1, §2

[10] = from complete loss of viability signal
[11] = incubated 10 days before 1 week of treatment
[12] = incubated 4 days before 1 week of treatment

Structure (SMILES): N=C(N)NC(=O)c1nc(Cl)c(N)nc1N [Amiloride, amiloride]
- change of transepithelial resistance, in words [1]: increase in resistance

Structure (SMILES): NC(=O)CC[C@@H]1NC(=O)[C@H](Cc2ccccc2)NC(=O)[C@H](Cc2ccc(O)cc2)NC(=O)[C@@H](N)CSSC[C@@H](C(=O)N2CCC[C@H]2C(=O)N[C@@H](CCCN=C(N)N)C(=O)NCC(N)=O)NC(=O)[C@H](CC(N)=O)NC1=O [Arginine Vasopressin (AVP), Arginine Vasopressin]
- cyst size [2]: more larger on average

Structure (SMILES): CC(C)(CO)c1cc2cc(NC(=O)C3(c4ccc5c(c4)OC(F)(F)O5)CC3)c(F)cc2n1C[C@@H](O)CO [VX-661]
- IC50 ([3]; Homo sapiens, incubated 10 days before 1 week of treatment): 30 µM
- cytotoxicity [3, 10]: overt cytotoxicity
- extent of inhibition, in words [3, 11]: complete inhibition to no signal
- IC50 ([4]; Homo sapiens, incubated 4 days before 1 week of treatment): 10 µM
- cytotoxicity [4, 10]: overt cytotoxicity
- extent of inhibition, in words [4, 12]: complete inhibition to no signal

Structure (SMILES): Cc1ccc(NC(=O)C2(c3ccc4c(c3)OC(F)(F)O4)CC2)nc1-c1cccc(C(=O)O)c1 [VX-809]
- extent of inhibition, in words [3, 11]: only a partial effect and only at the highest concentrations
- extent of inhibition, in words [4, 12]: only a partial effect and only at the highest concentration

Structure (SMILES): COc1cc(Nc2c(C#N)cnc3cc(OCCCN4CCN(C)CC4)c(OC)cc23)c(Cl)cc1Cl [bosutinib]
- overt cell cytotoxicity [5]: no overt cell cytotoxicity
- effect on cyst appearance and expansion [5]: no effect
- increase in size of a small cyst ([6]; in 1-2 days): 2 fold

Structure (SMILES): CO[C@H]1C[C@@H]2CC[C@@H](C)[C@@](O)(O2)C(=O)C(=O)N2CCCC[C@H]2C(=O)O[C@H]([C@H](C)C[C@@H]2CC[C@@H](O)[C@H](OC)C2)CC(=O)[C@H](C)/C=C(\C)[C@@H](O)[C@@H](OC)C(=O)[C@H](C)C[C@H](C)/C=C/C=C/C=C/1C [rapamycin]
- overt toxicity [6]: not overtly toxic
- solubility [7]: ~30 µM (≈ 27.4 µg/mL)

Structure (SMILES): Cc1ccccc1C(=O)Nc1ccc(C(=O)N2CCCC(O)c3cc(Cl)ccc32)c(C)c1 (stereo not shown) [tolvaptan]
- cyst expansion ([5]; 10 and 30 micromolar): may have slowed cyst expansion
- overt cell cytotoxicity [5]: no overt cell cytotoxicity
- effect on cyst appearance and expansion [5]: little effect
- size of the smaller cyst ([6]; 6 days): quickly reduced in size
- size of the large cyst ([6]; week-long treatment): doubled in size but then decreased in size to a slightly reduced size
- solubility [7]: ~30 µM (≈ 13.5 µg/mL)
- IC50 ([8]; Homo sapiens, cyst prevention assays in 384-well plates, FIG. 24): > 10 µM
- efficacy in cAMP stimulated assays ([8]; cAMP stimulated): only slightly more effective
- concentrations at which effective ([8]; cyst prevention assays, FIG. 23): only at mid-micromolar concentrations
- efficacy, percent viability versus DMSO control ([8]; prevention assay, 30-1000 nM): ineffective
- inhibition at 10 µM ([9]; Homo sapiens, 10-fold higher concentration (10 μM), 2 weeks incubation, then 1-week treatment): ~20%
- efficacy, percent viability versus DMSO control ([9]; attack assay, 30-1000 nM): ineffective
- extent of inhibition, in words [3, 11]: only a partial effect and only at the highest concentrations
